Experiments:
Assay type in all cases: biochemical
ROCK = ROCK (Homo sapiens, UniProt Q13464); assay: ROCK inhibition assay, standard radioactive enzyme assay ("33P")
Procedure: Some compounds were screened for their ability to inhibit ROCK using a standard radioactive enzyme assay. Assays were carried out in a solution containing 100 mM HEPES (pH 7.5), 10 mM MgCl2, 25 mM NaCl, 2 mM DTT, and 1.5% DMSO. Final substrate concentrations in the assay were 13 μM [γ-^33P] ATP (25 mCi ^33P ATP/mmol ATP, Perkin Elmer, Cambridge, Mass./Sigma Chemicals, St Louis, Mo.) and 27 μM Myelin Basic Protein (MBP). Final enzyme concentration in the assay was 5 nM ROCK. Assays were carried out at room temperature. 1.5 μl of DMSO stock containing serial dilutions of the compound of the present invention (concentrations ranging from 10 μM to 2.6 nM) was placed in a 96 well plate. 50 μl of Solution 1 (100 mM HEPES (pH 7.5), 10 mM MgCl2, […]) was added to the plate. The reaction was initiated by addition of 50 μl of Solution 2 (100 mM HEPES (pH 7.5), 10 mM MgCl2, 4 mM DTT, […] and 10 nM ROCK). After 2 hours the reaction was quenched with 50 μL of 30% trichloroacetic acid (TCA, Fisher) containing 9 mM ATP. Transfer of 140 μL of the quenched reaction to a glass fiber filter plate (Corning, Cat. No. 3511) was followed by washing 3 times with 5% TCA. 50 μL of Optima Gold scintillation fluid (Perkin Elmer) was added and the plates were counted on a Top Count (Perkin Elmer). After removing mean background values for all of the data points the data was fit using Prism software to obtain a Ki(app).

[1] = biological target: T1, full length Aurora-A (AA 1-403) (Homo sapiens, UniProt O14965); assay: Aurora-A inhibition assay, standard coupled enzyme system; details: average Ki if more than one value determined
T1 construct: full length Aurora-A (AA 1-403)
T1 sequence (O14965 1-403): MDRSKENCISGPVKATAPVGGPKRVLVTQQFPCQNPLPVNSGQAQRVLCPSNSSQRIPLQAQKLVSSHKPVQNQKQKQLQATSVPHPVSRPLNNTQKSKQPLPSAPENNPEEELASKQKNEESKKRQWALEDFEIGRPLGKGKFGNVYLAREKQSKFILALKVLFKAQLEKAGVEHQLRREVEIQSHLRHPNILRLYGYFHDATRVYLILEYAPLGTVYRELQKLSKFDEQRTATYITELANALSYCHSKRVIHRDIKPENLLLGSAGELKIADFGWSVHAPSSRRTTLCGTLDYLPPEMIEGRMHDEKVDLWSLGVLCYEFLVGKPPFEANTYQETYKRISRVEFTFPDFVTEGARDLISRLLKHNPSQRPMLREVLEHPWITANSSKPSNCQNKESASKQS

JAK2 = JAK2 (Homo sapiens, UniProt O60674); assay: JAK2 inhibition assay (radioactive enzyme assay, as for JAK3); details: average Ki if more than one value determined
Chain of JAK2 (O60674 whole entry, species assumed): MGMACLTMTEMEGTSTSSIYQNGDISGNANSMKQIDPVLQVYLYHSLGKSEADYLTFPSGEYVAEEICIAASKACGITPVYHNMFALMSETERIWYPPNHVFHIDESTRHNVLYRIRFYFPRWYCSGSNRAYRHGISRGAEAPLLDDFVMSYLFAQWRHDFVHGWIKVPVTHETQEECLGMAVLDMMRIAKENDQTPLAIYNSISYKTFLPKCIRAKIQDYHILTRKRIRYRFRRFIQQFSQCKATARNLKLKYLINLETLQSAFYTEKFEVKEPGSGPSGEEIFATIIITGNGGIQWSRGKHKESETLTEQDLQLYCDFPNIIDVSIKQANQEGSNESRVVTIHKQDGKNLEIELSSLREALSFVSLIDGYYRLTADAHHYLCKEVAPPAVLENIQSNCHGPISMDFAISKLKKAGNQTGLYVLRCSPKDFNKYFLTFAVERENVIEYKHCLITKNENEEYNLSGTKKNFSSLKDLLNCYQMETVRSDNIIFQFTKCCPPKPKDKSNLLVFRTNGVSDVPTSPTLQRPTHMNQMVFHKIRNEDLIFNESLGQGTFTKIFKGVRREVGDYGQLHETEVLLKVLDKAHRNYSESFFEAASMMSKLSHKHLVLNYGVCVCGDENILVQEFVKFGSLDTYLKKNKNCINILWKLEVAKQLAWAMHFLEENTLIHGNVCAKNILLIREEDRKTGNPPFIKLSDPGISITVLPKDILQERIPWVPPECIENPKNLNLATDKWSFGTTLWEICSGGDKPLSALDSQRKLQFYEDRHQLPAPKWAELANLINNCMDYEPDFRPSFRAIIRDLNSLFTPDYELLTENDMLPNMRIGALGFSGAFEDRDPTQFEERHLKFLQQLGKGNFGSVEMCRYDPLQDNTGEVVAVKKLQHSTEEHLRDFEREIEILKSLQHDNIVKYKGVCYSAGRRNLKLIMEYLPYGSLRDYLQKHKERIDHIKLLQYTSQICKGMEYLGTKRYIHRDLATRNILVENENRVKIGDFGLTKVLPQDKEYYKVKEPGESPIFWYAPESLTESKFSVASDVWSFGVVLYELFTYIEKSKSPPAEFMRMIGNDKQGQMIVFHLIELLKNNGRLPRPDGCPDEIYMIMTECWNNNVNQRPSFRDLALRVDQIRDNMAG
How it was run: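 Both kinases: poly(Glu)4Tyr substrate in 100 mM HEPES pH 7.4, 10 mM MgCl2, 1 mM DTT. Run 20 min at 25° C, TCA stop, filter-bound ³³P counted, Ki(app) fitted after background subtraction. JAK3: final [γ-³³P]ATP 5 μM, enzyme added as 2 nM solution. JAK2: final poly(Glu)4Tyr 15 μM, final ATP 12 μM.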

Aurora-C = biological target: T2, Aurora-C (Homo sapiens, UniProt Q9UQB9); assay: Aurora-C inhibition assay, coupled enzyme system as for Aurora-A; details: average Ki if more than one value determined
T2 sequence (Q9UQB9 1-309): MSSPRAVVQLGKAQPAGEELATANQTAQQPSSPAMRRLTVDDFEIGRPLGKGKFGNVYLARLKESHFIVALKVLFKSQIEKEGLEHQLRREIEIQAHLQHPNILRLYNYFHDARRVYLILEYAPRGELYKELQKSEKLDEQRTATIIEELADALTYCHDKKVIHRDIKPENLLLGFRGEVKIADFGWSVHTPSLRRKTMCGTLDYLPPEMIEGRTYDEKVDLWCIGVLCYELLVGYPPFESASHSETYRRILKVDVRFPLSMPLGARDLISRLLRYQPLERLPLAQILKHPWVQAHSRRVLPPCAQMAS
How it was run: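 Ki values came from nonlinear regression of 10-min reaction rates measured by a pyruvate kinase/lactate dehydrogenase-coupled readout at 30 °C. Compounds, titrated 0.002-30 μM, were preincubated 10 min with enzyme (Aurora-A 35 nM, or Aurora-C) and 800 μM LRRASLG in HEPES pH 7.5 buffer with 3% DMSO; ATP (200 μM) started reactions.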

Aurora-B = Aurora-B (Homo sapiens, UniProt Q96GD4); assay: Aurora-B inhibition assay, radioactive assay; details: average Ki if more than one value determined
Chain of Aurora-B (Q96GD4 whole entry): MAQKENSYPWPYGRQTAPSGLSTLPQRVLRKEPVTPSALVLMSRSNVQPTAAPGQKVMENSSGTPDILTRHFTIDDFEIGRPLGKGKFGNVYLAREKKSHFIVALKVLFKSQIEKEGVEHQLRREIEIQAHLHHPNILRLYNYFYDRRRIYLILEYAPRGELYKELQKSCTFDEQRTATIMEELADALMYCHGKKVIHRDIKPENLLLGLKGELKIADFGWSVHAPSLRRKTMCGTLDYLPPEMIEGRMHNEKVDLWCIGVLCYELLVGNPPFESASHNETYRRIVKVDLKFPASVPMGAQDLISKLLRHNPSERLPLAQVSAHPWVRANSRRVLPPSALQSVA
How it was run: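 Aurora-B protein substituted into the standard radioactive kinase format: reaction quenched with TCA, product captured on glass fiber filters and 33P counted. Ki(app) derived by fitting background-corrected counts against inhibitor concentration.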

Chain of ROCK (Q13464 whole entry): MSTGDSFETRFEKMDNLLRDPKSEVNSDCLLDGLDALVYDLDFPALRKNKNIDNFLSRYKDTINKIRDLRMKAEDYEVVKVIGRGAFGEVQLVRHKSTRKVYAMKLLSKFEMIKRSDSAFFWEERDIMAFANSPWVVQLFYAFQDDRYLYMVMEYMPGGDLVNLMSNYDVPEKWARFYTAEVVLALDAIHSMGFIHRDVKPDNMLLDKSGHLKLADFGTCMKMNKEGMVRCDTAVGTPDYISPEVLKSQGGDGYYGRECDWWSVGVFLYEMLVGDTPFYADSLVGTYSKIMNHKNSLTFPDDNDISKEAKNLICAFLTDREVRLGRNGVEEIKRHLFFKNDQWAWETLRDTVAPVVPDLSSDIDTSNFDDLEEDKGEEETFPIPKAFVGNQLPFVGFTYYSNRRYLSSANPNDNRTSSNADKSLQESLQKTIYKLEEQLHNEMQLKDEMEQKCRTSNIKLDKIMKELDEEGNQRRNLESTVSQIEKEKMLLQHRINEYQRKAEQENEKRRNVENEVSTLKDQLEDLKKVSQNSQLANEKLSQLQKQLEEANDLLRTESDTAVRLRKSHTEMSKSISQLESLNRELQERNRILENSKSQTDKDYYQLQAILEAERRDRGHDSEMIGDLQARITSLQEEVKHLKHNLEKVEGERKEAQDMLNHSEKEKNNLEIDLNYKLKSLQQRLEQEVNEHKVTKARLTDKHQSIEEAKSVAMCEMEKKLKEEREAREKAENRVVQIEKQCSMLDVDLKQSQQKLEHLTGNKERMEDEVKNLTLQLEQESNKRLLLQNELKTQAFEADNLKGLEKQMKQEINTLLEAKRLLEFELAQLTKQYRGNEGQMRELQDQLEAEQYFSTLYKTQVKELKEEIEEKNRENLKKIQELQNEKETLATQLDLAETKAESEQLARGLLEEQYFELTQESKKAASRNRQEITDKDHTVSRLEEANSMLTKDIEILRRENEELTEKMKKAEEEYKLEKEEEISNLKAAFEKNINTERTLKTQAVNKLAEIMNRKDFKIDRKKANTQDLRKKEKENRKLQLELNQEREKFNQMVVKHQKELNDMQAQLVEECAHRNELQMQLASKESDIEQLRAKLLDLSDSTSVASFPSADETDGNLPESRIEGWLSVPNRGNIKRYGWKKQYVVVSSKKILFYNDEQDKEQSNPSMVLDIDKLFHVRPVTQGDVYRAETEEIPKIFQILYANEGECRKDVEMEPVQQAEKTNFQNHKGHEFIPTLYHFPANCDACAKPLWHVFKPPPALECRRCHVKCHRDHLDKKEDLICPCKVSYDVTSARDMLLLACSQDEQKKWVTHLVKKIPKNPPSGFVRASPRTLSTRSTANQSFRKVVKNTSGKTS

Ki (ROCK) | Ki [1] | Ki (JAK2) | Ki (Aurora-C) | Ki (Aurora-B) | Compound
< 0.5 µM | < 0.5 µM | < 0.5 µM |  |  | CCOC(=O)N1CCCN(c2nccc(-c3c[nH]c4ncc(OC)cc34)n2)CC1 [Compound 33]
 | < 0.5 µM |  | < 0.5 µM | < 0.5 µM | C[C@H](Nc1nc(-c2c[nH]c3ncc(Cl)cc23)ncc1F)C(=O)NCC(F)(F)F [Compound 369]
0.5 to 5 µM | 0.5 to 5 µM | < 0.5 µM |  |  | COc1cnc2[nH]cc(-c3cccc(N4C[C@@H](C)N(C(C)=O)[C@@H](C)C4)n3)c2c1 [Compound 18]
< 0.5 µM | < 0.5 µM | < 0.5 µM |  |  | COC(=O)c1cnc2[nH]cc(-c3cccc(N4C[C@@H](C)N(C(C)=O)[C@@H](C)C4)n3)c2c1 [Compound 35]
< 0.5 µM | < 0.5 µM | < 0.5 µM |  |  | CC(=O)N1[C@H](C)CN(c2cccc(-c3c[nH]c4ncc(Cl)cc34)n2)C[C@@H]1C [Compound 19]
 | < 0.5 µM | < 0.5 µM |  | < 0.5 µM | C[C@H](Nc1cccc(-c2c[nH]c3ncc(Cl)cc23)n1)c1ccc(F)cc1 [Compound 395]

From US8501446B2 (Vertex Pharmaceuticals Incorporated, priority 2004, dated 2013)
